Earlier results, collected in patent publication US20130236944A1, “METHODS FOR THE INACTIVATION OF ANTIBIOTICS” (priority 2011, published 2013).

Settings: after 180 days; Hektoen et al. (1995)

SMILES	degradation in marine sediments
CN(C)[C@@H]1C(O)=C(C(N)=O)C(=O)[C@@]2(O)C(O)=C3C(=O)c4c(O)cccc4[C@@](C)(O)[C@H]3[C@H](O)[C@@H]12 [oxytetracycline]	no degradation
CCn1cc(C(=O)O)c(=O)c2cc3c(cc21)OCO3 [oxolanic acid]	no degradation
